# Reference: patent US7645885B2, “Non-steroidal antiandrogens” (The Regents of the University of California, priority 2005, dated 2010)
# Target: T1, recombinant rat AR LBD (Rattus norvegicus, UniProt P15207)
# T1 construct: recombinant rat AR LBD
# T1 sequence (P15207 651-882 limits assumed): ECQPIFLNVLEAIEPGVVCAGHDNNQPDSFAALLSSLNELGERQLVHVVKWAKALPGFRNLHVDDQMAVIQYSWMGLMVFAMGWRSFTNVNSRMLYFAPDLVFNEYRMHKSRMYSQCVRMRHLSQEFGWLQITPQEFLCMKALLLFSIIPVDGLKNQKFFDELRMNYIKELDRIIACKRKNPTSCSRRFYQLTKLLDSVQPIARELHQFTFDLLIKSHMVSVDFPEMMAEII
# Assay: competition fluorescence polarization binding assay
# Conditions: relative binding affinity; ratio of Kd of test compound to Kd of DHT multiplied by 100
# Procedure: Binding affinity of the synthesized ligands was evaluated by competition fluorescence polarization assay using recombinant rat AR LBD, and the results summarized in Table 1. All ligands with a bulky right-hand extension, such as compounds 18-20 in FIG. 5, performed poorly in this assay, with even the best compounds binding AR only weakly. […] In Table 1, RBA stands for relative binding affinity, and is defined as the ratio of Kd of the test compound to Kd of DHT multiplied by 100.
row,RBA (DHT = 100),SMILES
1,1,"CC12Cc3cn[nH]c3C=C1CCCC2CCCO (stereo not drawn) [Compound 12, 3-(4α-Methyl-4,4α,5,6,7,8-hexahydro-1H-benzo[f]indazol-5-yl)propan-1-ol]"
2,19,"CC12Cc3cnn(-c4ccc(F)cc4)c3C=C1CCCC2CCCO (stereo not drawn) [Compound 16, 3-(1-[4-Fluorophenyl]-4α-Methyl-4,4α,5,6,7,8-hexahydro-1H-benzo[f]indazol-5-yl)propan-1-ol]"
3,<0.1,"CC12Cc3cn[nH]c3C=C1CCCC2CCc1ccc(CO)cc1 (centres unmarked) [Compound 18, {4-[2-(4a-Methyl-4,4a,5,6,7,8-hexahydro-1H-benzo[f]indazol-5-yl)-ethyl]-phenyl}-methanol]"
4,<0.1,"CC12Cc3cnoc3C=C1CCCC2CCc1ccc(CO)cc1 (centres unmarked) [Compound 19, {4-[2-(4a-Methyl-4,4a,5,6,7,8-hexahydro-naphtho[2,3-d]isoxazol-5-yl)-ethyl]-phenyl}-methanol]"
5,0.12,CC12Cc3cnn(-c4ccc(F)cc4)c3C=C1CCCC2CCc1ccc(CO)cc1 (centres unmarked) [Compound 20]
